Assays:
[1] = system: Type I phosphodiesterase, Snake Venon; assay: Activity of Type I phosphodiesterase, snake venom (Table VII); assay type: biochemical; conditions: 1 mM 4-nitrophenyl ester of the named compound
Description: (§1) Enzymic hydrolysis of 4-nitrophenyl esters is quantitated spectrophotometrically by the appearance of the 4-nitrophenolate ion at 400 nm (ε=18,320 M^-^1 cm^-1, pK 7.15) (see Kezdy, F. J. and Bender, M. L., 1962, Biochemistry, Volume 1, page 1097), either continuously above pH 7.0 or discontinuously by raising the assay mixture to pH 9 and inactivating the enzyme by the addition of two volumes of 1 M NaHCO3, 10 mM Na3 PO4, 10 mM Na2 EDTA. Standard assay conditions are 1 mM 4-nitrophenyl phenylphosphonate, 0.1 M Tris, pH 8.0, 30° C.
(§2) Table VII is a comparison of Type I and Type II Phosphodiesterase as follows:
(§3) Substrates were 1 mM solutions of the 4-nitrophenyl esters of the above

[2] = system: Type II phosphodiesterase, Bovine spleen; assay: Activity of Type II phosphodiesterase, bovine spleen (Table VII); assay type: biochemical; conditions: 1 mM 4-nitrophenyl ester of the named compound
Description: as §1, §2, §3

[3] = biological target: T1, purified bovine intestinal phosphodiesterase (Bos taurus, UniProt P15396); assay: Kinetic parameters of hydrolysis by purified phosphonate monoesterase/phosphodiesterase of calf intestinal mucosa (Table VI); assay type: biochemical, bovine (calf); conditions: 0.1 M Tris pH 8.0, 30° C., 4-nitrophenol measured continuously at 400 nm
T1 sequence (P15396 1-874): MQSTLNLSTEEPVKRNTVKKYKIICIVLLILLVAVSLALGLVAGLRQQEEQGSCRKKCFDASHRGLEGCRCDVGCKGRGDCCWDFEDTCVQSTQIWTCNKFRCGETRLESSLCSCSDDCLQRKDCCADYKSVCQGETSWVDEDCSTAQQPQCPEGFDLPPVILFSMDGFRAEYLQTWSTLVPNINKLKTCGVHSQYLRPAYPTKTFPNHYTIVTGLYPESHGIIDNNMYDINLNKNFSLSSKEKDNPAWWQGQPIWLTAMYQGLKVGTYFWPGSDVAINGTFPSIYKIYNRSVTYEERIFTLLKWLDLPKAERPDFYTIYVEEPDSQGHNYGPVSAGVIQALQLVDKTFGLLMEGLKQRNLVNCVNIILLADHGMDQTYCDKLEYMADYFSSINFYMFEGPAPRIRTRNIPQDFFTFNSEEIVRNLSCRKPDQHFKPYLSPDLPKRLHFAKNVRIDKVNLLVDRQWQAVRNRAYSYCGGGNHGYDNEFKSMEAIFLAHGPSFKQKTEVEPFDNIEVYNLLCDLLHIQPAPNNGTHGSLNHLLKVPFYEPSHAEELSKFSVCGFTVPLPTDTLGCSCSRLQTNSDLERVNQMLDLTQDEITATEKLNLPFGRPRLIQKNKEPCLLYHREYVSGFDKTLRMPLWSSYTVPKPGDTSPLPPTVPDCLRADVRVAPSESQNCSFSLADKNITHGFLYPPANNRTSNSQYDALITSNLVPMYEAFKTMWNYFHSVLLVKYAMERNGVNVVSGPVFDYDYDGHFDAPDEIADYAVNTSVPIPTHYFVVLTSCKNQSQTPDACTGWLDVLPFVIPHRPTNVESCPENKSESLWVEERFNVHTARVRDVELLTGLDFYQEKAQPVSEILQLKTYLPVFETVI
Description: as §1
^a Production of 4-nitrophenol was measured continuously at 400 nm in […]

[4] = biological target: T2, Type I phosphodiesterase, Bovine Intestine (Bos taurus, UniProt P15396); assay: Activity of Type I phosphodiesterase, bovine intestine (Table VII); assay type: biochemical; conditions: 1 mM 4-nitrophenyl ester of the named compound
T2 construct: from tissue; host or cells: bovine intestine
T2 sequence (P15396 1-874): T1 sequence (P15396 1-874)
Description: as §1, §2, §3

[5] = Stability and water solubility of phosphonate monoesters

Cc1cn([C@H]2C[C@H](OP(=O)(O)Oc3ccc([N+](=O)[O-])cc3)[C@@H](CO)O2)c(=O)[nH]c1=O [4-nitrophenyl 3'-TMP]
Activity [1]: 1.9 nmoles min^-^1 mg^-^1
Activity [2]: 168 nmoles min^-^1 mg^-^1
Vmax [3]: 1 μmoles min^-^1 mg^-^1
Activity [4]: 569 nmoles min^-^1 mg^-^1

O=[N+]([O-])c1ccc(OP(=O)(O)c2ccccc2)cc1 [4-nitrophenyl phenylphosphonate]
stability of solutions of the ammonium salt ([5]; concentrations to 0.1 M, 0°-4° C.): stable in concentrations to 0.1 M for several weeks at 0°-4 °C
stability as the dry ammonium salt ([5]; dry ammonium salt): stable indefinitely as the dry ammonium salt
stability in solution compared with 4-nitrophenyl phosphate ([5]; in solution): much more stable in solution than is 4-nitrophenyl phosphate

Cc1cn([C@H]2C[C@H](O)[C@@H](COP(=O)(O)Oc3ccc([N+](=O)[O-])cc3)O2)c(=O)[nH]c1=O [4-nitrophenyl 5'-TMP]
Activity [1]: 4570 nmoles min^-^1 mg^-^1
Activity [2]: 6.9 nmoles min^-^1 mg^-^1
Activity [4]: 65,700 nmoles min^-^1 mg^-^1
